Reference: ChEMBL document CHEMBL1687866, “Efficient microwave-assisted synthesis of novel 3-aminohexahydrocoumarin derivatives and evaluation on their cytotoxicity” (Eur J Med Chem, 2011)
Converted amounts (≈) assume the structure as drawn.

Legend:
[1] = system: SGC-7901; assay: Cytotoxicity against human SGC7901 cells after 20 hrs by MTT assay; assay type: functional, cell-based; settings: SGC-7901, 20 h
[2] = Cytotoxicity against human SW1116 cells assessed as cell viability rate at 1 ug/ml after 24 hrs by MTT assay; assay type: functional, SW 1116
[3] = Cytotoxicity against human SW1116 cells assessed as cell viability rate at 0.1 ug/ml after 24 hrs by MTT assay; assay type: functional, SW 1116
[4] = Cytotoxicity against human SW1116 cells assessed as cell viability rate at 10 ug/ml after 24 hrs by MTT assay; assay type: functional, SW 1116

Structure (SMILES)	IC50 [1] [µg/mL]	Cell viability [2] [%]	Cell viability [3] [%]	Cell viability [4] [%]
O=C1CCCC2=C1C(c1ccco1)C(NC(=O)c1ccccc1)C(=O)O2 (mixture of isomers)	1.3	97.92	95.53	74.22
Cc1ccc(C2C3=C(CCCC3=O)OC(=O)C2NC(=O)c2ccccc2)cc1 (mixture of isomers)	1.86	106.66	113.97	107.87
COc1cccc2c1C(=O)c1c(O)c3c(c(O)c1C2=O)C[C@@](O)(C(=O)CO)C[C@@H]3O[C@H]1C[C@H](N)[C@H](O)[C@H](C)O1.Cl [DOXORUBICIN HYDROCHLORIDE]	–	–	–	67.34
O=C1CCCC2=C1C(c1ccccc1Br)C(NC(=O)c1ccccc1)C(=O)O2 (mixture of isomers)	3.94	92.19	50.51	99.27
O=C1CCCC2=C1C(c1ccccc1Cl)C(NC(=O)c1ccccc1)C(=O)O2 (mixture of isomers)	0.226	102.59	109.5	87.56
CC1(C)CC(=O)C2=C(C1)OC(=O)C(NC(=O)c1ccccc1)C2c1cccs1 (mixture of isomers)	0.612	104.31	94.51	50.51
O=C1CCCC2=C1C(c1ccc(F)cc1)C(NC(=O)c1ccccc1)C(=O)O2 (mixture of isomers)	0.812	91.07	90.86	83.22
O=C1CCCC2=C1C(c1ccc([N+](=O)[O-])cc1)C(NC(=O)c1ccccc1)C(=O)O2 (mixture of isomers)	1.09	100.6	73.6	55.22
CC1(C)CC(=O)C2=C(C1)OC(=O)C(NC(=O)c1ccccc1)C2c1ccc(Cl)cc1 (mixture of isomers)	> 100	77.81	77.19	64.34
COc1cc(C2C3=C(CCCC3=O)OC(=O)C2NC(=O)c2ccccc2)cc(OC)c1OC (mixture of isomers)	1.21	109.73	110.34	94.07
O=C1CCCC2=C1C(c1cccs1)C(NC(=O)c1ccccc1)C(=O)O2 (mixture of isomers)	0.701	81.65	79.97	69.73
CC1(C)CC(=O)C2=C(C1)OC(=O)C(NC(=O)c1ccccc1)C2c1ccco1 (stereo not drawn)	0.259 (≈ 0.683 µM)	67.67	79.26	42.02
CC1(C)CC(=O)C2=C(C1)OC(=O)C(NC(=O)c1ccccc1)C2c1ccc([N+](=O)[O-])cc1 (mixture of isomers)	0.905	73.4	107.38	46.6
O=C1CCCC2=C1C(c1ccc(Cl)cc1)C(NC(=O)c1ccccc1)C(=O)O2 (mixture of isomers)	> 100	89.77	91.48	69.78
Cc1ccc(C2C3=C(CC(C)(C)CC3=O)OC(=O)C2NC(=O)c2ccccc2)cc1 (mixture of isomers)	2.69	83.63	77.88	82.67
COc1cc(C2C3=C(CC(C)(C)CC3=O)OC(=O)C2NC(=O)c2ccccc2)cc(OC)c1OC (mixture of isomers)	0.158	81.59	91.48	92.18
CC1(C)CC(=O)C2=C(C1)OC(=O)C(NC(=O)c1ccccc1)C2c1ccccc1Br (mixture of isomers)	5.13	99.3	102.11	55.74
CC1(C)CC(=O)C2=C(C1)OC(=O)C(NC(=O)c1ccccc1)C2c1ccc(F)cc1 (mixture of isomers)	0.436	91.39	95.76	59.03
CC1(C)CC(=O)C2=C(C1)OC(=O)C(NC(=O)c1ccccc1)C2c1ccccc1Cl (mixture of isomers)	0.239	97.92	114.23	85.08
